Experimental data taken from patent US20240075032A1, “A Pharmaceutical Composition for Treating Cancer” (XUANZHU BIOPHARMACEUTICAL CO., LTD., priority 2020, published 2024).

Legend:
[1] = test system: MCF7 human xenograft model; experiment: Tumor growth inhibition in MCF7 human xenograft model; assay type: in vivo, Balb/c female nude mouse; conditions: Formula (I) 30 mg/kg orally once a day 21 days, fulvestrant 5 mg/mouse subcutaneously once a week 3 weeks
Experimental: 1. Tumor Inoculating and Grouping
Estrogen was injected subcutaneously on one day before animal inoculation, twice a week, and 40 μg/20 μL for each time (estrogen specification: 4 mg/2 mL) until the experiment was ended. MCF7 cells resuspended by a serum-free medium were inoculated subcutaneously on the right rib of a Balb/c female nude mouse at 1.5×10^7+matrigel/0.2 mL (cell: matrigel=1:1). While the tumor growed to a volume mean value of 163 mm^3, it was grouped and administered. The group of the compound of Formula (I) was administered orally once a day at an dose of 30 mg/kg for 21 consecutive days; the group of the fulvestrant was administered subcutaneously once a week, 5 mg per animal, for 3 consecutive weeks; and while the compound of Formula (I) was used in combination with the fulvestrant, the same administration mode was used as while used alone.
2. Measurement and Experimental Indicator of Tumor
The tumor volume was measured twice a week with a vernier caliper, the long diameter and the short diameter of the tumor were measured, and its volume calculation formula is: volume=0.5×long diameter×short diameter^2. The relative tumor volume RTV and relative tumor volume increase ratio (T/C) were calculated according to measurement results. […]

MCF7 = experiment: Cell proliferation detection using BrdU method (MCF7); assay type: cell-based; conditions: Homo sapiens, 48 hours, fixed-ratio combination 640:3.2 nM series, concentration axis = compound of Formula (I), read-out: Cytological activity on MCF7 in vitro (IC50)
Experimental: Experimental method: Cell proliferation detection using BrdU method (BrdU cell proliferation test kit, PerkinElmer Company) • 1. Reagent and compound preparation • 1.1. Preparation of 1-fold washing solution:
A washing solution with a mother liquor concentration of 25 times was diluted into 1-fold washing solution with ultrapure water. • 1.2. Preparation of 1-fold detection antibody solution:
A BrdU-Eu detection antibody with a mother liquor concentration of 200 times was diluted into 1-fold detection antibody solution with a detection antibody diluent. • 1.3. 100-fold BrdU labeling solution:
A BrdU stock solution with a mother liquor concentration of 1000 times was diluted into 100-fold BrdU labeling solution with a culture medium corresponding to cells. • 1.4. […]
MCF7 medium: MEM+10% FBS+1% bispecific antibody+10 μg/mL human recombinant insulin • 2. […] Then resuspended with a corresponding culture medium, counted and adjustment-inoculated in a 96-well plate, the MCF7 cells were inoculated according to 8000 cells/well/100 μL, placed and cultured in a 37° C. cell incubator, and after the cells were adhered to a wall, it was replaced with a serum-free medium. • 2.2. […]
• 2.3. […] 200 μL of time-resolved immunofluorescence induction solution was added per well, and incubated at the room temperature for 15 minutes, and the fluorescence value (Flu value) was detected by a microplate reader. • 3.

Compound: C[C@]12CC[C@@H]3c4ccc(O)cc4C[C@@H](CCCCCCCCC[S+]([O-])CCCC(F)(F)C(F)(F)F)[C@H]3[C@@H]1CC[C@@H]2O (stereo partly drawn) [Fulvestrant, fulvestrant]
- TGI(%) ([1]; combination same modes): 55.9%
- Tumor volume at the end of administration ([1]; mean ± standard error, start about 163 mm^3, solvent control 468 ± 37): 216 ± 44 mm^3
- IC50 (MCF7): 0.22 nM
